Test results published in publication PMC5008636, “Phosphatidylserine and Phosphatidylethanolamine Bind to Protein Z Cooperatively and with Equal Affinity” (PLoS ONE, 2016).
Entries after “also recorded” stand apart in the source; their conditions may differ. Read-outs that look alike come from different tables or passages of the source. One block for each compound: values may come before it.

Assays:
[1] = molecular target: human fXa (Homo sapiens, UniProt P00742); assay: FXa inhibition assay: AT-mediated inhibition of fXa amidolytic activity (S2765); assay type: biochemical; settings: 40 nM PZ, 3 μM AT, no membrane
Sequence of human fXa (P00742 41-179 limits assumed): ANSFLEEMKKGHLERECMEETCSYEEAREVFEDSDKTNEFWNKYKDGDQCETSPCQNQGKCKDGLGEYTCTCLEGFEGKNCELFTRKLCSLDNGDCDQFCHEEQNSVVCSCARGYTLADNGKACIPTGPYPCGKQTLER
Sequence of human fXa (P00742 235-488 limits assumed): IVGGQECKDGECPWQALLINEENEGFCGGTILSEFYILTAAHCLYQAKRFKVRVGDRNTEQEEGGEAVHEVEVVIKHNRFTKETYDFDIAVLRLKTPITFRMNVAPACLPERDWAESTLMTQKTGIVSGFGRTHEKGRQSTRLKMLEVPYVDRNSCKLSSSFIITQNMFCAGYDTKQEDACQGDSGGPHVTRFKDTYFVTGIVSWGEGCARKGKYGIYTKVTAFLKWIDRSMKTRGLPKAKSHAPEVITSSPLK
Experimental: Amidolytic activity of human fXa was measured in an assay mixtures containing 5 nM fXa, 3 μM AT, 50 μM phospholipid membrane (DOPS:DOPC, DOPE:DOPC, and only DOPC) and 40 nM PZ in buffer (50 mM Tris, 175 mM NaCl, 0.6% PEG, 5 mM CaCl2, pH 7.4 using the substrate S2765 according to the method described in [31]. Briefly, mixtures (150 μl) containing fXa in appropriate buffer were incubated with or without PZ and with or without membrane at 37°C in the wells of a microtiter plate for 5 mins before adding AT to that. 1 mM of substrate S2765 was added then and initial rate of substrate cleavage was determined by measuring the absorbance at 405 nm using the plate reader (Molecular Devices, CA, USA). Factor Xa activity was determined by comparing the initial rate of substrate cleavage with a standard curve produced with various concentrations of factor Xa in the same buffer conditions.

[2] = molecular target: T1, PZ (Homo sapiens, UniProt P22891); assay: Binding of soluble lipids to PZ by intrinsic tryptophan fluorescence; settings: for Kd in 1 mM Ca2+ relative to Kd in 5 mM Ca2+: 1 mM vs 5 mM Ca2+; for binding to PZ with excess EDTA: 5 mM EDTA in the assay buffer; for effect of pre-incubation of PZ with C6PS on affinity of PZ towards the lipid: saturating amount of C6PS; for lower binding affinity to PZ compared to PS and PE: soluble lipids, 5 mM Ca2+
T1 construct: purchased Enzyme Research Laboratories (South Bend, IN, USA)
T1 sequence (P22891 41-400): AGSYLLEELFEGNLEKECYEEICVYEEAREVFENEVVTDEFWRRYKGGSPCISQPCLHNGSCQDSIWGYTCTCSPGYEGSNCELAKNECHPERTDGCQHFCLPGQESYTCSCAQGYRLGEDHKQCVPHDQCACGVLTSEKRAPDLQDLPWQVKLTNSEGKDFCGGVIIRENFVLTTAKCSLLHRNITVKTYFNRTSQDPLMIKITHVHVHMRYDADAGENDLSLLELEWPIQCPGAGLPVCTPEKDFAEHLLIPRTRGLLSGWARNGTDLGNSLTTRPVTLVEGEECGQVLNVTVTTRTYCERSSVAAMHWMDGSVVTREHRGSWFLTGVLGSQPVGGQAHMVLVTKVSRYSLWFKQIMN
Experimental: (§1) PZ intrinsic tryptophan fluorescence as a function of increasing concentration of soluble phospholipid was measured as described in [12] using a FluoroLog spectrofluorometer (Horiba Jobin-Yvon Inc., Edison, NJ) with an excitation wavelength of 285nm (band-pass 4 nm); emission was recorded at 340 nm (band-pass 4 nm). Each experiment was performed below the critical micelle concentration (CMC) of the soluble lipid. The CMC was determined under experimental conditions following pyrene fluorescence as a function of increasing lipid concentration. Apparent dissociation constants for binding of PZ to soluble lipids were obtained by fitting the experimental data to a simple, single-site binding model, using the assumption that [C6PL]free ≈ [C6PL]total

[3] = molecular target: T1, PZ; assay: Equilibrium dialysis of soluble C6PS/C6PE binding to PZ; settings: for Stoichiometry (Average) of lipid binding to PZ / ΔP (difference in phosphate concentration): 250 μM lipid, 5 mM Ca2+; for Stoichiometry (Average) of lipid binding to PZ: PZ 15, 20, 30 μM, calculated from Eq (1); for binding to PZ in equilibrium dialysis without Ca2+: absence of Ca2+ and presence of EDTA in the buffer
Experimental: Experiments were performed using 2.0-ml Teflon dialysis cells (Harvard Apparatus, Holliston, MA) with the two cells separated by a 2000 Da molecular weight cut-off membrane. Both chambers contained equal amount of […], and one chamber contained the appropriate amount of PZ. Both chambers were allowed to equilibrate with each other at room temperature for 24 h while being rotated horizontally at 20 rpm. […] where, n is the stoichiometry of binding, [L] is the concentration of phospholipid added to the chamber, [P] is the protein concentration present in one half of the chamber, and Kd is the binding constant obtained from fluorescence experiments. Total protein concentration, [P], must be large enough to detect a measurable difference in phosphate concentration between the two chambers. In a recent analysis of soluble lipid binding to two non-equivalent sites on fIXa, it was shown that a narrow protein concentration range was sufficient to obtain stoichiometries for each site. […] For each protein concentration, three aliquots were withdrawn and phosphate concentrations were measured.

[4] = Critical micelle concentration by pyrene fluorescence; assay type: physicochemical; settings: under experimental conditions
Experimental: as §1
Since pyrene is hydrophobic, partitioning into the interior of a micelle is manifested as a sharp increase in the ratio of the intensity of the pyrene emissions at 373 and 383 nm.

[5] = molecular target: fXa; parameters: method as in PMID 21859710; settings: soluble lipid; read-out: Kd for binding of fXa; cited from earlier work
[6] = 150 nM PZ, 5 mM CaCl2, pH 7.5, 25° C, no pre-incubation lipid, single-site binding model, read-out: apparent Kd for binding to PZ
[7] = 1 mM Ca2+, read-out: binding Kd to PZ in presence of 1 mM Ca2+

Compound: CCCCCC(=O)OC[C@H](COP(=O)(O)OC[C@@H](N)C(=O)O)OC(=O)CCCCC [C6(D)PS]
- Kd [2, 6]: 911 ± 300 µM

Compound: CCCCCC(=O)OC[C@H](COP(=O)(O)OC[C@H](N)C(=O)O)OC(=O)CCCCC [C6PS, 1,2-dicaproyl-sn-glycero-3-phospho-L-serine]
- Kd [2, 6]: 47.7 ± 10.7 µM
- Kd [2, 7]: 165 µM
- Kd in 1 mM Ca2+ relative to Kd in 5 mM Ca2+ [2]: about 3.5 fold
- binding to PZ with excess EDTA [2]: did not observe any binding
- Stoichiometry (Average) of lipid binding to PZ [3]: 2.0 (1.96 ± 0.1)
- ΔP (difference in phosphate concentration) ([3]; [PZ] 15 μM): 27.6 ± 0.2
- ΔP (difference in phosphate concentration) ([3]; [PZ] 20 μM): 32.3 ± 0.09
- ΔP (difference in phosphate concentration) ([3]; [PZ] 30 μM): 45.3 ± 0.1
- binding to PZ in equilibrium dialysis without Ca2+ [3]: did not detect any binding
- critical micelle concentration (CMC) [4]: 950 µM
- Kd [5]: 86 µM

Compound: CCCCCC(=O)OC[C@H](COP(=O)([O-])OCC[N+](C)(C)C)OC(=O)CCCCC [C6PC]
- Kd [2, 6]: 129 ± 32 µM
- effect of pre-incubation of PZ with C6PS on affinity of PZ towards the lipid [2]: did not alter the affinity; also recorded: did not enhance the affinity
- lower binding affinity to PZ compared to PS and PE [2]: ~ 3 fold

Compound: CCCCCC(=O)OC[C@H](COP(=O)(O)OCCN)OC(=O)CCCCC [C6PE, 1,2-dicaproyl-sn-glycero-3-phospho-L-ethanolamine]
- Kd ([2]; 150 nM PZ, 5 mM CaCl2, pH 7.5, 25° C, no pre-incubation lipid, single-site binding model, listed as PE, read-out: apparent Kd for binding to PZ): ~48 µM
- Kd [2, 6]: 47.6 ± 8.2 µM
- Kd [2, 7]: 172 µM
- Kd in 1 mM Ca2+ relative to Kd in 5 mM Ca2+ [2]: about 3.5 fold
- binding to PZ with excess EDTA [2]: did not observe any binding
- Stoichiometry (Average) of lipid binding to PZ [3]: 2.0 (1.93 ± 0.2)
- ΔP (difference in phosphate concentration) ([3]; [PZ] 15 μM): 28.9 ± 0.08
- ΔP (difference in phosphate concentration) ([3]; [PZ] 20 μM): 31.8 ± 0.2
- ΔP (difference in phosphate concentration) ([3]; [PZ] 30 μM): 42.8 ± 0.6
- binding to PZ in equilibrium dialysis without Ca2+ [3]: did not detect any binding
- critical micelle concentration (CMC) [4]: 1200 µM
- Kd [5]: 91 µM

Second part, led by results:

- effect of inclusion of PZ on AT inhibition of fXa [1]: essentially no effect
Compound: PZ: human Protein Z, 62 kDa vitamin K-dependent cofactor

- Kd [2, 6]: 131 ± 39 µM
- lower binding affinity to PZ compared to PS and PE [2]: ~ 3 fold
Compound: CCCCCC(=O)OC[C@H](COP(=O)(O)OCC(O)CO)OC(=O)CCCCC (stereo partly shown) [C6PG]
- effect of pre-incubation of PZ with C6PS on affinity of PZ towards the lipid [2]: did not alter the affinity; also recorded: did not enhance the affinity

- Kd [2, 6]: 165 ± 25 µM
- lower binding affinity to PZ compared to PS and PE [2]: ~ 3 fold
Compound: CCCCCC(=O)OC[C@H](COP(=O)(O)O)OC(=O)CCCCC [C6PA]
- effect of pre-incubation of PZ with C6PS on affinity of PZ towards the lipid [2]: did not alter the affinity; also recorded: did not enhance the affinity
